How the values were obtained:
[1] = system: HIV-IIIb; assay: Test A: Antiviral assay in MT4 cells; type: cell-based, HIV-1; conditions: MT-4 cells infected with HIV-IIIb, 5 days, CellTiter-Glo; for inhibition at 2 µM: Human immunodeficiency virus 1, IIIB, MT4, 120 h, read-out: % inhibition at 2 μM, percent inhibition of virus-induced cell killing, from dose response curve at 2 uM drug
[2] = in vitro; conditions: human, uninfected MT-4 cells, CC50 (nM), same protocol as Test A, CellTiter-Glo
Method in brief: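 Cytoprotection read-out: CellTiter-Glo chemiluminescence after 5 days at 37 °C of HIV-IIIb-infected MT-4 cells (m.o.i. 0.003) with compound in 10-point 3-fold dilutions, quadruplicate, 10% FBS. Cytotoxicity (CC50) measured identically without virus.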

SMILES | inhibition at 2 µM [1] | CC50 at 5 days [2] | % inhibition at 2 μM ([1]; percent inhibition of virus-induced cell killing, from dose response curve at 2 uM drug)
O=C(Cn1nc(C(F)(F)F)c2c1CCCC2)N[C@@H](Cc1cc(F)cc(F)c1)c1ncncc1-c1ccc(Cl)cc1 [Example 351, (S)—N-(1-(5-(4-chlorophenyl)pyrimidin-4-yl)-2-(3,5-difluorophenyl)ethyl)-2-(3-(trifluoromethyl)-4,5,6,7-tetrahydro-1H-indazol-1-yl)acetamide] | 95% | 8600 nM | 
CS(=O)(=O)c1ccc(-c2cccnc2[C@H](Cc2cc(F)cc(F)c2)NC(=O)Cc2c[nH]c3ccc(F)cc23)cc1 [Example 413, (S)—N-(2-(3,5-difluorophenyl)-1-(3-(4-(methylsulfonyl)phenyl)pyridin-2-yl)ethyl)-2-(5-fluoro-1H-indol-3-yl)acetamide] | 61% | 14500 nM | 
CCC(C(=O)N[C@@H](Cc1cc(F)cc(F)c1)c1ncccc1-c1ccc(F)c(C(N)=O)c1)n1cc(C(F)(F)F)cn1 (single isomer, unassigned) [Example 565] |  | 37600 nM | 0%
NC(=O)c1cc(-c2cccnc2[C@H](Cc2cc(F)cc(F)c2)NC(=O)COc2cc[nH]c(=O)c2)ccc1F [Example 282, (S)-5-(2-(2-(3,5-difluorophenyl)-1-(2-(2-oxo-1,2-dihydropyridin-4-yloxy)acetamido)ethyl)pyridin-3-yl)-2-fluorobenzamide] | 0% | > 53200 nM | 
COc1ccc(CC(=O)N[C@@H](Cc2cc(F)cc(F)c2)c2ncccc2-c2cccc(C(N)=O)c2)c(OC)c1 [Example 499, (S)-3-(2-(2-(3,5-difluorophenyl)-1-(2-(2,4-dimethoxyphenyl)acetamido)ethyl)pyridin-3-yl)benzamide] | 22% | > 53000 nM | 
NC(=O)c1cc(-c2cccnc2[C@H](Cc2cc(F)cc(F)c2)NC(=O)Cn2nc3c(c2C(F)(F)F)CNC3)ccc1F [Example 200B, (S)-5-(2-(2-(3,5-difluorophenyl)-1-(2-(3-(trifluoromethyl)-5,6-dihydropyrrolo[3,4-c]pyrazol-2(4H)-yl)acetamido)ethyl)pyridin-3-yl)-2-fluorobenzamide] | 0% | > 53200 nM | 
NC(=O)c1cc(-c2cccnc2[C@H](Cc2cc(F)cc(F)c2)NC(=O)[C@H]2CC[C@@H](c3ccccc3)N2)ccc1F [Example 183, (2R,5S)—N—((S)-1-(3-(3-carbamoyl-4-fluorophenyl)pyridin-2-yl)-2-(3,5-difluorophenyl)ethyl)-5-phenylpyrrolidine-2-carboxamide] | 0% | 35200 nM | 
CC(C)Cc1cc(C(F)(F)F)nn1CC(=O)N[C@@H](Cc1cc(F)cc(F)c1)c1ncccc1-c1ccc(F)c(C(N)=O)c1 [Example 207C, (S)-5-(2-(2-(3,5-difluorophenyl)-1-(2-(5-isobutyl-3-(trifluoromethyl)-1H-pyrazol-1-yl)acetamido)ethyl)pyridin-3-yl)-2-fluorobenzamide] | 16% | 13200 nM | 
O=C(Cn1nc(C(F)F)c2c1C(F)(F)C1CC21)N[C@@H](Cc1cc(F)cc(F)c1)c1ncccc1-c1ccc2ccncc2c1 (stereo partly drawn) [Example 104, (S)—N-(1-(3-(isoquinolin-7-yl)-pyridin-2-yl)-2-(3,5-difluorophenyl)ethyl)-2-(3-(difluoromethyl)-5,6-dihydro-4,5-(methano)-6,6-difluoro-cyclopenta[c]pyrazol-1(4H)-yl)acetamide] | 32% | 15700 nM | 
NC(=O)c1cc(-c2cccnc2[C@H](Cc2cc(F)cc(F)c2)NC(=O)Cn2nc(C(F)(F)F)c3c2CC(F)(F)CC3)ccc1F [Example 387, (S)-5-(2-(1-(2-(6,6-difluoro-3-(trifluoromethyl)-4,5,6,7-tetrahydro-1H-indazol-1-yl)acetamido)-2-(3,5-difluorophenyl)ethyl)pyridin-3-yl)-2-fluorobenzamide] | 61% | 21200 nM | 
NC(=O)c1cc(-c2cccnc2[C@H](Cc2cc(F)cc(F)c2)NC(=O)Cn2cnc3c(=O)[nH]ccc32)ccc1F [Example 336, (S)-5-(2-(2-(3,5-difluorophenyl)-1-(2-(4-oxo-4,5-dihydro-1H-imidazo[4,5-c]pyridin-1-yl)acetamido)ethyl)pyridin-3-yl)-2-fluorobenzamide] | 0% | > 53200 nM | 
COc1ccc(-c2cccnc2[C@H](Cc2cc(F)cc(F)c2)NC(=O)Cc2c[nH]c3ccc(NS(C)(=O)=O)cc23)cc1 [Example 35G, (S)—N-(2-(3,5-difluorophenyl)-1-(3-(4-methoxyphenyl)pyridin-2-yl)ethyl)-2-(5-(methylsulfonamido)-1H-indol-3-yl)acetamide] | 49% | 22400 nM | 
NC(=O)c1cc(-c2cccnc2[C@H](Cc2cc(F)cc(F)c2)NC(=O)Cn2nc(C(F)(F)F)c3c2CCC(F)(F)C3)ccc1F [Example 150, (S)-5-(2-(1-(2-(5,5-difluoro-3-(trifluoromethyl)-4,5,6,7-tetrahydro-1H-indazol-1-yl)acetamido)-2-(3,5-difluorophenyl)ethyl)pyridin-3-yl)-2-fluorobenzamide] | 15% | 18400 nM | 
Cc1c(Br)c(C(F)(F)F)nn1CC(=O)N[C@@H](Cc1cc(F)cc(F)c1)c1ncccc1-c1ccc(F)c(C(N)=O)c1 [Example 275, (S)-5-(2-(1-(2-(4-bromo-5-methyl-3-(trifluoromethyl)-1H-pyrazol-1-yl)acetamido)-2-(3,5-difluorophenyl)ethyl)pyridin-3-yl)-2-fluorobenzamide] | 53% | 16900 nM | 
Cc1ccc2c(c1)NC(=O)C2CC(=O)N[C@@H](Cc1cc(F)cc(F)c1)c1ncccc1-c1ccc(F)c(C(N)=O)c1 (stereo partly drawn) [Example 255, 5-(2-((1S)-2-(3,5-difluorophenyl)-1-(2-(6-methyl-2-oxoindolin-3-yl)acetamido)ethyl)pyridin-3-yl)-2-fluorobenzamide] | 1% | > 53200 nM | 
Cc1ccccc1-c1ccnc(C(Cc2cc(F)cc(F)c2)NC(=O)Cc2c[nH]c3ccc(O)cc23)n1 (centres unmarked) [Example 11, N-(2-(3,5-difluorophenyl)-1-(4-o-tolylpyrimidin-2-yl)ethyl)-2-(5-hydroxy-1H-indol-3-yl)acetamide] | 0% | 35700 nM | 
Cc1cccc(-c2cccnc2[C@H](Cc2cc(F)cc(F)c2)NC(=O)Cn2nc(C(F)(F)F)c3c2CCCC3)c1 [Example 76, (S)—N-(2-(3,5-difluorophenyl)-1-(3-m-tolylpyridin-2-yl)ethyl)-2-(3-(trifluoromethyl)-4,5,6,7-tetrahydro-1H-indazol-1-yl)acetamide] | 20% | 11500 nM | 
NC(=O)c1cc(-c2cccnc2[C@H](Cc2cc(F)cc(F)c2)NC(=O)Cn2nc(C(=O)O)c3c2C2CCC3C2)ccc1F (stereo partly drawn) [Example 409, (S)-5-(2-(2-(3,5-difluorophenyl)-1-(2-(4,5,6,7-tetrahydro-3-carboxy-4,7-(methano)indazol-1-yl)acetamido)ethyl)pyridin-3-yl)-2-fluorobenzamide] | 0% | > 53200 nM | 
O=C(Cn1nc(C(F)F)c2c1C(F)(F)C1CC21)N[C@@H](Cc1cc(F)cc(F)c1)c1ncccc1-c1ccc2cnccc2c1 (some centres unmarked) [Example 436] | 20% | 11300 nM | 
COc1ccc2c(c1)C(CC(=O)N[C@@H](Cc1cc(F)cc(F)c1)c1ncccc1-c1ccc(F)c(C(N)=O)c1)C(=O)N2 (stereo partly drawn) [Example 202, 5-(2-((1S)-2-(3,5-difluorophenyl)-1-(2-(5-methoxy-2-oxoindolin-3-yl)acetamido)ethyl)pyridin-3-yl)-2-fluorobenzamide] | 1% | > 53200 nM | 
NC(=O)c1cc(-c2cccnc2[C@H](Cc2cccc(F)c2)NC(=O)CC2C(=O)Nc3ccc(F)cc32)ccc1F (stereo partly drawn) [Example 253, 2-fluoro-5-(2-((1S)-1-(2-(5-fluoro-2-oxoindolin-3-yl)acetamido)-2-(3-fluorophenyl)ethyl)pyridin-3-yl)benzamide] | 27% | > 53200 nM | 
NC(=O)c1cc(-c2cccnc2[C@H](Cc2cccc(F)c2)NC(=O)Cc2cc(=O)[nH]c3ccccc23)ccc1F [Example 257, (S)-2-fluoro-5-(2-(2-(3-fluorophenyl)-1-(2-(2-oxo-1,2-dihydroquinolin-4-yl)acetamido)ethyl)pyridin-3-yl)benzamide] | 7% | > 53200 nM | 
CS(=O)(=O)c1ccc2[nH]cc(CC(=O)N[C@@H](Cc3cc(F)cc(F)c3)c3ncccc3-c3ccc(F)c(C(N)=O)c3)c2c1 [Example 464, (S)-5-(2-(2-(3,5-difluorophenyl)-1-(2-(5-(methylsulfonyl)-1H-indol-3-yl)acetamido)ethyl)pyridin-3-yl)-2-fluorobenzamide] | 119% | > 53200 nM | 
COc1ccc(-c2cccnc2[C@H](Cc2cc(F)cc(F)c2)NC(=O)Cc2c[nH]c3ccc(O)cc23)cc1 [Example 13G, (S)—N-(2-(3,5-difluorophenyl)-1-(3-(4-methoxyphenyl)pyridin-2-yl)ethyl)-2-(5-hydroxy-1H-indol-3-yl)acetamide] | 97% | 25600 nM | 
CC(C)(C)OC(=O)N1Cc2c(C(F)(F)F)nn(CC(=O)N[C@@H](Cc3cc(F)cc(F)c3)c3ncccc3-c3ccc(F)c(C(N)=O)c3)c2C1 [Example 227, (S)-tert-butyl 1-(2-((1-(3-(3-carbamoyl-4-fluorophenyl)pyridin-2-yl)-2-(3,5-difluorophenyl)ethyl)amino)-2-oxoethyl)-3-(trifluoromethyl)-4,6-dihydropyrrolo[3,4-c]pyrazole-5(1H)-carboxylate] | 1% | 14300 nM | 
